Values after ≈ are worked out from the molar mass of the structure shown. Like-named read-outs stand apart in the source and are kept apart here.
Assays:
Format in all cases: cell-based
[1] = system: Streptococcus pneumoniae 1195 (ATCC 49619); experiment: MIC by broth microdilution, SPNE 1195
Experimental: (§1) Antibacterial activity in vitro is investigated by broth microdilution method in Meuller-Hinton broth as recommended by NCCLS. All strains tested are clinical isolates either sensitive or resistant to natural glycopeptides. MIC values were determined using the CLSI-recommended broth microdilution procedure (Clinical and Laboratory Standards Institute, Methods for Dilution Antimicrobial Susceptibility Tests for Bacteria That Grow Aerobically; Approved Standard-Seventh Edition.). Automated liquid handlers (Multidrop 384, Labsystems, Helsinki, Finland; Biomek 2000 and Multimek 96, Beckman Coulter, Fullerton Calif.) were used to conduct serial dilutions and liquid transfers. The MIC value for vancomycin is given for comparison. The abbreviations for organisms tested are as follow: SA 100—Staphylococcus aureus 100 (ATCC 29213); SA 757—Staphylococcus aureus 757 (MRSA); SA 2012—Staphylococcus aureus 2012 (VISA); SE 835—Staphylococcus epidermidis 835; SE 831—Staphylococcus epidermidis 831 (MRSE); EFc 101—Enterococcus faecalis 101 (ATCC 29212); EFc 848—Enterococcus faecalis 848 (VRE, Van A); EFcm 800—Enterococcus faecium 800; EFcm 752—Enterococcus faecium 752 (VRE, Van A); SPNE 1195—Streptococcus pneumoniae 1195 (ATCC 49619); SPY 712—Streptococcus pyogenes 712.

[2] = system: Staphylococcus aureus 757 (MRSA); experiment: MIC by broth microdilution, SA 757; conditions: read-out: MIC SA 757
Experimental: as §1

[3] = system: Enterococcus faecalis 848 (VRE, Van A); experiment: MIC by broth microdilution, EFc 848; conditions: class symbols
Experimental: as §1

[4] = system: Staphylococcus epidermidis 835; experiment: MIC by broth microdilution, SE 835
Experimental: as §1

[5] = system: Staphylococcus aureus 2012 (VISA); experiment: MIC by broth microdilution, SA 2012; conditions: class symbols
Experimental: as §1

Enterococcus faecium 800 = experiment: MIC by broth microdilution, EFcm 800
Experimental: as §1

[6] = system: Enterococcus faecium 752 (VRE, Van A); experiment: MIC by broth microdilution, EFcm 752; conditions: class symbols
Experimental: as §1

[7] = system: Staphylococcus epidermidis 831 (MRSE); experiment: MIC by broth microdilution, SE 831; conditions: read-out: MIC SE 831
Experimental: as §1

[8] = system: Streptococcus pyogenes 712; experiment: MIC by broth microdilution, SPY 712
Experimental: as §1

[9] = system: Staphylococcus aureus 100 (ATCC 29213); experiment: MIC by broth microdilution, SA 100
Experimental: as §1

[10] = system: Enterococcus faecalis 101 (ATCC 29212); experiment: MIC by broth microdilution, EFc 101; conditions: class symbols
Experimental: as §1

[11] = ATCC49619, Streptococcus pneumoniae 1195 (ATCC 49619), class symbols, read-out: MIC S PNE 1195
[12] = Staphylococcus aureus 757 (MRSA), class symbols
[13] = Enterococcus faecalis 848 (VRE, Van A), read-out: MIC E FC 848
[14] = Staphylococcus epidermidis 835, class symbols, read-out: MIC SE 835
[15] = Staphylococcus aureus 2012 (VISA), read-out: MIC SA 2012
[16] = Enterococcus faecium 800, class symbols, read-out: MIC E FCM 800
[17] = Enterococcus faecium 752 (VRE, Van A), read-out: MIC E FCM 752
[18] = Staphylococcus epidermidis 831 (MRSE), class symbols
[19] = Streptococcus pyogenes 712, class symbols, read-out: MIC S PYO 712
[20] = ATCC29213, Staphylococcus aureus 100 (ATCC 29213), class symbols, read-out: MIC SA 100
[21] = ATCC29212, Enterococcus faecalis 101 (ATCC 29212), read-out: MIC E FC 101
[22] = Streptococcus pneumoniae, ATCC49619, read-out: MIC S PNE 1195
[23] = Enterococcus faecalis, VRE, read-out: MIC E FC 848, Enterococcus faecalis 848 (VRE, Van A)
[24] = Staphylococcus epidermidis, 835, read-out: MIC SE 835
[25] = Staphylococcus aureus, VISA, read-out: MIC SA 2012, Staphylococcus aureus 2012 (VISA)
[26] = Enterococcus faecium, 800, read-out: MIC E FCM 800
[27] = Enterococcus faecium, VRE, read-out: MIC E FCM 752, Enterococcus faecium 752 (VRE, Van A)
[28] = Staphylococcus epidermidis, MRSE
[29] = Streptococcus pyogenes, 712, read-out: MIC S PYO 712
[30] = Staphylococcus aureus, ATCC29213, read-out: MIC SA 100
[31] = Enterococcus faecalis, ATCC29212, read-out: MIC E FC 101, Enterococcus faecalis 101 (ATCC 29212)

Row | MIC [1, 11] [mg/L] | MIC [2, 12] [mg/L] | MIC [3, 13] [mg/L] | MIC [4, 14] [mg/L] | MIC [5, 15] [mg/L] | MIC (Enterococcus faecium 800; [16]) [mg/L] | MIC [6, 17] [mg/L] | MIC [7, 18] [mg/L] | MIC [8, 19] [mg/L] | MIC [9, 20] [mg/L] | MIC [10, 21] [mg/L] | Compound | MIC [1, 22] [mg/L] | MIC ([2]; Staphylococcus aureus, MRSA) [mg/L] | MIC [3, 23] [mg/L] | MIC [4, 24] [mg/L] | MIC [5, 25] [mg/L] | MIC (Enterococcus faecium 800; [26]) [mg/L] | MIC [6, 27] [mg/L] | MIC [7, 28] [mg/L] | MIC [8, 29] [mg/L] | other results
1 | 0.01 to 0.5 (≈ 0.00534 to 0.267 µM) | 0.01 to 0.5 (≈ 0.00534 to 0.267 µM) | 4 to 8 (≈ 2.14 to 4.27 µM) | 0.01 to 0.5 (≈ 0.00534 to 0.267 µM) | 0.01 to 0.5 (≈ 0.00534 to 0.267 µM) | 0.01 to 0.5 (≈ 0.00534 to 0.267 µM) | 0.5 to 1 (≈ 0.267 to 0.534 µM) | 0.01 to 0.5 (≈ 0.00534 to 0.267 µM) | 0.01 to 0.5 (≈ 0.00534 to 0.267 µM) | 0.01 to 0.5 (≈ 0.00534 to 0.267 µM) | 0.01 to 0.5 (≈ 0.00534 to 0.267 µM) | CCCCCCc1ccc(S(=O)(=O)NCCCCCCNCc2c(O)cc3c(c2O)-c2cc(ccc2O)[C@H]2NC(=O)[C@@H]4NC(=O)[C@H](CC(N)=O)NC(=O)[C@H](NC(=O)[C@@H](CC(C)C)NC)[C@H](O)c5ccc(c(Cl)c5)Oc5cc4cc(c5O[C@@H]4O[C@H](CO)[C@@H](O)[C@H](O)[C@H]4O[C@H]4C[C@](C)(NC(=O)[C@@H](C)N)[C@H](O)[C@H](C)O4)Oc4ccc(cc4Cl)[C@@H](O)[C@H](NC2=O)C(=O)N[C@@H]3C(=O)O)cc1 (atropisomer, axis not shown) [Compound 342] | – | – | – | – | – | – | – | – | – | –
2 | 0.01 to 0.5 (≈ 0.00526 to 0.263 µM) | 0.01 to 0.5 (≈ 0.00526 to 0.263 µM) | 8 to 16 (≈ 4.21 to 8.42 µM) | 0.01 to 0.5 (≈ 0.00526 to 0.263 µM) | 0.01 to 0.5 (≈ 0.00526 to 0.263 µM) | 0.01 to 0.5 (≈ 0.00526 to 0.263 µM) | 1 to 2 (≈ 0.526 to 1.05 µM) | 0.01 to 0.5 (≈ 0.00526 to 0.263 µM) | 0.01 to 0.5 (≈ 0.00526 to 0.263 µM) | 0.01 to 0.5 (≈ 0.00526 to 0.263 µM) | 0.01 to 0.5 (≈ 0.00526 to 0.263 µM) | CCCCCCc1ccc(S(=O)(=O)NCCCCCCNCc2c(O)cc3c(c2O)-c2cc(ccc2O)[C@H]2NC(=O)[C@@H]4NC(=O)[C@H](CC(N)=O)NC(=O)[C@H](NC(=O)[C@@H](CC(C)C)NC)[C@H](O)c5ccc(c(Cl)c5)Oc5cc4cc(c5O[C@@H]4O[C@H](CO)[C@@H](O)[C@H](O)[C@H]4O[C@H]4C[C@](C)(NC(=O)[C@H](N)C(C)C)[C@H](O)[C@H](C)O4)Oc4ccc(cc4Cl)[C@@H](O)[C@H](NC2=O)C(=O)N[C@@H]3C(=O)O)cc1 (atropisomer, axis not shown) [Compound 343] | – | – | – | – | – | – | – | – | – | –
3 | 0.01 to 0.5 (≈ 0.00546 to 0.273 µM) | 0.01 to 0.5 (≈ 0.00546 to 0.273 µM) | > 16 | 0.01 to 0.5 (≈ 0.00546 to 0.273 µM) | 0.5 to 1 (≈ 0.273 to 0.546 µM) | 0.01 to 0.5 (≈ 0.00546 to 0.273 µM) | 8 to 16 (≈ 4.36 to 8.73 µM) | 0.01 to 0.5 (≈ 0.00546 to 0.273 µM) | 0.01 to 0.5 (≈ 0.00546 to 0.273 µM) | 0.01 to 0.5 (≈ 0.00546 to 0.273 µM) | 0.5 to 1 (≈ 0.273 to 0.546 µM) | CCCCCOc1ccc(S(=O)(=O)NCCCCNCc2c(O)cc3c(c2O)-c2cc(ccc2O)[C@H]2NC(=O)[C@@H]4NC(=O)[C@H](CC(N)=O)NC(=O)[C@H](NC(=O)[C@@H](CC(C)C)NC)[C@H](O)c5ccc(c(Cl)c5)Oc5cc4cc(c5O[C@@H]4O[C@H](CO)[C@@H](O)[C@H](O)[C@H]4O[C@H]4C[C@](C)(NC(=O)CN)[C@H](O)[C@H](C)O4)Oc4ccc(cc4Cl)[C@@H](O)[C@H](NC2=O)C(=O)N[C@@H]3C(=O)O)cc1 (atropisomer, axis not shown) [Compound 346] | – | – | – | – | – | – | – | – | – | –

Further lines, the compound ahead of its results:

Row | Compound | MIC [1, 11] [mg/L] | MIC [2, 12] [mg/L] | MIC [3, 13] [mg/L] | MIC [4, 14] [mg/L] | MIC [5, 15] [mg/L] | MIC (Enterococcus faecium 800; [16]) [mg/L] | MIC [6, 17] [mg/L] | MIC [7, 18] [mg/L] | MIC [8, 19] [mg/L] | MIC [9, 20] [mg/L] | MIC [10, 21] [mg/L] | MIC [1, 22] [mg/L] | MIC ([2]; Staphylococcus aureus, MRSA) [mg/L] | MIC [3, 23] [mg/L] | MIC [4, 24] [mg/L] | MIC [5, 25] [mg/L] | MIC (Enterococcus faecium 800; [26]) [mg/L] | MIC [6, 27] [mg/L] | MIC [7, 28] [mg/L] | MIC [8, 29] [mg/L] | other results
4 | CCCCCCc1ccc(NC(=O)NCCCCCCNC(=O)Oc2cc(O)c3c(c2)[C@@H](C(=O)O)NC(=O)[C@H]2NC(=O)[C@H](NC(=O)[C@@H]4NC(=O)[C@H](CC(N)=O)NC(=O)[C@H](NC(=O)[C@@H](CC(C)C)NC)[C@H](O)c5ccc(c(Cl)c5)Oc5cc4cc(c5O[C@@H]4O[C@H](CO)[C@@H](O)[C@H](O)[C@H]4O[C@H]4C[C@](C)(N)[C@H](O)[C@H](C)O4)Oc4ccc(cc4Cl)[C@H]2O)c2ccc(O)c-3c2)cc1 (atropisomer, axis not shown) [Compound 354] | – | – | – | – | – | – | – | – | – | – | – | 0.01 to 0.5 (≈ 0.00557 to 0.279 µM) | 0.01 to 0.5 (≈ 0.00557 to 0.279 µM) | 2 to 4 (≈ 1.11 to 2.23 µM) | 0.01 to 0.5 (≈ 0.00557 to 0.279 µM) | 0.5 to 1 (≈ 0.279 to 0.557 µM) | 0.01 to 0.5 (≈ 0.00557 to 0.279 µM) | 0.01 to 0.5 (≈ 0.00557 to 0.279 µM) | 0.01 to 0.5 (≈ 0.00557 to 0.279 µM) | 0.01 to 0.5 (≈ 0.00557 to 0.279 µM) | MIC [9, 30]: 0.01 to 0.5 mg/L (≈ 0.00557 to 0.279 µM); MIC [10, 31]: 0.01 to 0.5 mg/L (≈ 0.00557 to 0.279 µM)
5 | CCCCCCCCNC(=O)Oc1cc(O)c2c(c1)[C@@H](C(=O)NC1C3CC4CC(C3)CC1C4)NC(=O)[C@H]1NC(=O)[C@H](NC(=O)[C@@H]3NC(=O)[C@H](CC(N)=O)NC(=O)[C@H](NC(=O)[C@@H](CC(C)C)NC)[C@H](O)c4ccc(c(Cl)c4)Oc4cc3cc(c4OC3OC(CO)C(O)C(O)C3OC3CC(C)(N)C(O)C(C)O3)Oc3ccc(cc3Cl)[C@H]1O)c1ccc(O)c-2c1 (stereo partly shown) [Compound 33] | – | – | – | – | – | – | – | – | – | – | – | 0.01 to 0.5 (≈ 0.00575 to 0.288 µM) | 0.01 to 0.5 (≈ 0.00575 to 0.288 µM) | 2 to 4 (≈ 1.15 to 2.3 µM) | 0.01 to 0.5 (≈ 0.00575 to 0.288 µM) | 0.5 to 1 (≈ 0.288 to 0.575 µM) | 0.01 to 0.5 (≈ 0.00575 to 0.288 µM) | 0.5 to 1 (≈ 0.288 to 0.575 µM) | 0.01 to 0.5 (≈ 0.00575 to 0.288 µM) | 0.01 to 0.5 (≈ 0.00575 to 0.288 µM) | MIC [9, 30]: 0.01 to 0.5 mg/L (≈ 0.00575 to 0.288 µM); MIC [10, 31]: 0.01 to 0.5 mg/L (≈ 0.00575 to 0.288 µM)

From patent US20110015119A1, “NOVEL SEMI-SYNTHETIC GLYCOPEPTIDES AS ANTIBACTERIAL AGENTS” (LEAD THERAPEUTICS, INC., priority 2009, published 2011)
